The values below come from US8889724B2, “Tetrazole compounds for reducing uric acid” (Wellstat Therapeutics Corporation, priority 2008, dated 2014).

A short description of the data set: Mouse oral single-dose pharmacokinetic study with Compound EB. It is filed as in vivo. The note with it: 100 mg/kg single oral gavage. Here is the method:
Mouse Oral Single-Dose Pharmacokinetic Study with Compound EB
Determination of the Plasma profile of Compound EB following single oral gavage administration to male mice:
Test compounds were suspended in 1% HPMC using a tissue homogenizer to minimize particles and maximize uniformity of the suspension and stored at 4° C. The formulations was thoroughly mixed just prior to administration. A dose of 100 mg/kg of Compound EB or vehicle (1% HPMC) was administered to male mice by single oral gavage. Mice were placed in urine collectors after dosing for 5 hours, and the total urine output for 5 hours was collected. Samples were frozen at −80° C. until analyzed using LC/MS-MS.
At 0, 0.5, 1, 2, 4, 6, 8 and 24 hours post-dose time points, blood samples (0.4 mL) were collected by orbital sinus bleeds in K3EDTA tubes. The blood samples were centrifuged within 30 minutes of collection under refrigeration (2-8° C.) for 7 minutes at 6000 rpm. Following centrifugation, the plasma were harvested into a single tube for each animal at each time point and immediately frozen at −80° C. until analyzed using LC/MS-MS. Data was subjected to pharmacokinetic analyses using WinNonlin Standard (v2.1, Pharsight Corporation) and Microsoft EXCEL.
1. Mice received single oral gavage of Compound EB, 100 mg/kg, and plasma was collected at certain times.
2. Plasma was stored at −80° C. until the day of analysis.
3. Samples were thawed on 37° C. bath for 5 min and vortexed at top speed for 10 sec.
4. Mouse plasma, 0.1 mL was mixed with 0.2 mL Acetonitrile, vortexed 1 min, spun down 14000 rpm, 17000 g, at 4° C., for 25 min.
5. Supernatants were filtered through 0.45 micron, 4 mm, PTFE membrane syringe filter (Phenomenex # AF0-3102-52), and 13 microL were injected and resolved on Luna 3 micron, 100 A pore, C8(2), 150×3 mm, reverse phase column (Phenomenex#00F-4248-YO, SN#259151-7) in 50 min linear gradient from 40% to 69% of (0.1% Formic Acid, 89.9% Acetonitrile, 10% Methanol) at 0.25 mL/min, 100 bar, 37° C. column temperature, method 406975M1, Sequence 1029-08A, Agilent 1100 LC-MS.
All samples were run in duplicate, 210 nm and 230 nm Absorbances, Negative and Positive ionization spectrograms recorded.
Step 1. Plasma from “Vehicle” animals (pooled), 0.095 mL, was mixed with 0.005 mL 20× stock of Compound EB in Methanol to make 500 microM, 250 microM, 125 microM, . . . , concentrations of Compound EB in plasma.
For example: 95 microL plasma+5 microL of 10 mM Compound EB in methanol=0.1 mL plasma with 500 microM Compound EB.
Step 2. Samples from step 1 were vortexed for 10 sec at top speed.
Step 3. 0.2 mL of acetonitrile was added to all samples from Step 2, and all vials were vortexed at top speed for 1 min.
Step 4. All samples from step 3 were spun down 14000 rpm, 17000 g, at 4° C., for 25 min.
Step 5. Supernatants were filtered through 0.45 micron, 4 mm, PTFE membrane syringe filter (Phenomenex # AF0-3102-52), 13 microL were injected and resolved on Luna 3 micron, 100 A pore, C8(2), 150×3 mm, reverse phase column

Values joined by “and” are separate entries in the source; they are usually repeats but may differ in a detail not shown here. Identical values can stand only once. Like-named read-outs stand apart in the source and are kept apart here.

As to `Cc1cccc(C)c1COc1cccc(-c2nnn[nH]2)c1` [Compound EB, 5-(3-(2,6-Dimethylbenzyloxy)phenyl)-1H-tetrazole], under “LC-MS”, the “Detection in mouse plasma (in words)” value was “readily detected”. Further, the “Compound EB concentr. in plasma, individual animals” value (shortened to “Compound EB concentr. in plasma”) was 0 µg/mL (male mice, bleed time 0 HR); 207.5 µg/mL and 134.2 µg/mL (male mice, bleed time 0.5 HR); 139.7 µg/mL and 157.6 µg/mL (male mice, bleed time 1 HR); 139.9 µg/mL and 187.6 µg/mL and 82.4 µg/mL (male mice, bleed time 2 HR); 74.9 µg/mL and 92.1 µg/mL and 39.6 µg/mL (male mice, bleed time 4 HR); 79.9 µg/mL and 48 µg/mL (male mice, bleed time 6 HR). Moreover, the “Compound EB concentr. in plasma” value (male mice, bleed time 8 HR) is 18.2 µg/mL and 10.7 µg/mL and 0 µg/mL; the “Compound EB concentr. in plasma” value (male mice, bleed time 24 HR) was 0 µg/mL. In addition, the AUC0-24 result (male mice, plasma) is recorded as “AUC0-24: 796 μg/mL”. Further, the concentration at 0 h by setting is: (male, mouse, plasma, po, 100 mg/kg, male mice, 0 hr, read-out: Compound EB concentration in plasma, average) 0 ng/mL; (male, mouse, plasma, po, 100 mg/kg, male mice, bleed time 0 HR, read-out: Compound EB concentr. in plasma, individual animals) 0 ng/mL. Further, the concentration at 0.5 h is 183 µg/mL (male, mouse, plasma, po, 100 mg/kg, male mice, 0.5 hr, read-out: Compound EB concentration in plasma, average) and 206 µg/mL (male, mouse, plasma, po, 100 mg/kg, male mice, bleed time 0.5 HR, read-out: Compound EB concentr. in plasma, individual animals). Further, the concentration at 1 h reads like this: (male, mouse, plasma, po, 100 mg/kg, male mice, 1 hr, read-out: Compound EB concentration in plasma, average) 169 µg/mL; (male, mouse, plasma, po, 100 mg/kg, male mice, bleed time 1 HR, read-out: Compound EB concentr. in plasma, individual animals) 210 µg/mL. Also, the concentration at 2 h (male, mouse, plasma, po, 100 mg/kg, male mice, 2 hr) was determined as 137 µg/mL. In addition, the concentration at 4 h (male, mouse, plasma, po, 100 mg/kg, male mice, 4 hr) came to 69 µg/mL. The concentration at 6 h (male, mouse, plasma, po, 100 mg/kg, male mice, 6 hr, read-out: Compound EB concentration in plasma, average) turned out to be 62 µg/mL and the concentration at 6 h (male, mouse, plasma, po, 100 mg/kg, male mice, bleed time 6 HR, read-out: Compound EB concentr. in plasma, individual animals) came out at 58.7 µg/mL. The concentration at 8 h (male, mouse, plasma, po, 100 mg/kg, male mice, 8 hr) is 10 µg/mL. Besides, the concentration at 24 h was determined as 3 µg/mL (male, mouse, plasma, po, 100 mg/kg, male mice, 24 hr, read-out: Compound EB concentration in plasma, average) and 0 µg/mL (male, mouse, plasma, po, 100 mg/kg, male mice, bleed time 24 HR, read-out: Compound EB concentr. in plasma, individual animals). In addition, the Cmax (mouse, male mice, plasma) amounted to 210 µg/mL.

By Cmax is commonly meant the peak of the concentration-time curve.
